Here are results for two compounds from patent publication US20070026505A1, “Amino acid and metabolite biosynthesis” (priority 2005, published 2007).

For one assay, the target named is T1, C. glutamicum MetA (Corynebacterium glutamicum, UniProt O68640).
T1 construct: contain both endogenous and episomal C. glutamicum MetA and MetY genes; expressed in transfected cells; host or cells: C. glutamicum MA-442 (plasmid MB-4135, metA-metY) and MA-449 (MB-4138, metY-metA), both MA-428 / ATCC 13032 derivatives; crude protein extract
Description: MetA (in vitro O-acetyltransferase) activity in crude protein extracts, C. glutamicum MetA. The format is biochemical.

Assay [1] relates to O-Acetylhomoserine sulfhydrylase (MetY). The following applies: grown in the presence of 0.5 mM methionine; cited from earlier work.

T1 sequence (O68640 whole entry): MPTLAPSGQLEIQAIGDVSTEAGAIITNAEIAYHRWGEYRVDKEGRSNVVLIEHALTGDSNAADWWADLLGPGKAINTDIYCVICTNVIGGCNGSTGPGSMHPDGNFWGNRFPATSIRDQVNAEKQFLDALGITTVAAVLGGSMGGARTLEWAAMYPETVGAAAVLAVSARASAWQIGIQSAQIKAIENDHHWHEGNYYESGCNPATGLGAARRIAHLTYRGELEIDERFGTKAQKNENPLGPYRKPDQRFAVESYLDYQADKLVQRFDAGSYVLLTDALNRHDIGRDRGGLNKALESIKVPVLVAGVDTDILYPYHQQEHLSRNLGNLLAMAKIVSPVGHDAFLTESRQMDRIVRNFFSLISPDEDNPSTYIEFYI
Description for C. glutamicum MetA: MetA activity in C. glutamicum expressing endogenous and episomal metA genes was determined. MetA activity was assayed in crude protein extracts using a protocol described by Kredich and Tomkins (J. Biol. Chem.241(21): 4955-4965, 1966). […] Briefly, 1 μg of protein extract was added to a microtiter plate. Reaction mix (250 μl; 100 mM tris-HCl pH 7.5, 2 mM 5,5′-Dithiobis(2-nitrobenzoic acid) (DTN), 2 mM sodium EDTA, 2 mM acetyl CoA, 2 mM homoserine) was added to each well of the microtiter plate. In the course of the reactions, MetA activity liberates CoA from acetyl-CoA. A disulfide interchange occurs between the CoA and DTN to produce thionitrobenzoic acid. The production of thionitrobenzoic acid is followed spectrophotometrically. Absorbance at 412 nm was measured every 5 minutes over a period of 30 minutes. A well without protein extract was included as a control. […] Inhibitors were added directly to the reaction mix before it was added to the protein extract.
Experiments were performed in the presence and absence of IPTG that induces expression of the plasmid borne MetA and MetY genes.

For `C[S+](CC[C@H](N)C(=O)[O-])C[C@H]1O[C@@H](n2cnc3c(N)ncnc32)[C@H](O)[C@@H]1O` (stereo partly drawn) [S-AM, S-adenosyl methionine], the “MetA activity of MA-442 extracts in presence of S-AM” value at C. glutamicum MetA (0.2 mM S-AM) was “reduced”.
In the case of `CSCC[C@H](N)C(=O)O` [methionine], the “MetA activity of MA-442 extracts in presence of methionine” value at C. glutamicum MetA (5 mM methionine) is listed as “reduced”. Moreover, the “reduction in MetY enzyme activity” value in assay [1] is 99%.
